Molecular target: T1, phosphatase ABI1 via the co-regulator RCAR11/PYR1 (Arabidopsis thaliana, UniProt O49686+P49597)
T1 sequence (P49597 1-434): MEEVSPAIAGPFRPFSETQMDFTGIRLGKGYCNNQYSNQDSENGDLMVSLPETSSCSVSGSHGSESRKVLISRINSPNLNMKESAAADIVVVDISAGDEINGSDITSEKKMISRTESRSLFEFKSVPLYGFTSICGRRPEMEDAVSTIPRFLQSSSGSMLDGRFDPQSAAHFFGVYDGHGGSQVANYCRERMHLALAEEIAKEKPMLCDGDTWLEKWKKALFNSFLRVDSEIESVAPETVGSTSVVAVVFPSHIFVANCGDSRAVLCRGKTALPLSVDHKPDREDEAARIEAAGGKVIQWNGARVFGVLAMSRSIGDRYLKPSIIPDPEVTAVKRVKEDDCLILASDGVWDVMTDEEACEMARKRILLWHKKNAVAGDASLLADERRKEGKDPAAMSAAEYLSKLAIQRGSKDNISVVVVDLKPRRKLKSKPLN
T1 sequence (O49686 1-191): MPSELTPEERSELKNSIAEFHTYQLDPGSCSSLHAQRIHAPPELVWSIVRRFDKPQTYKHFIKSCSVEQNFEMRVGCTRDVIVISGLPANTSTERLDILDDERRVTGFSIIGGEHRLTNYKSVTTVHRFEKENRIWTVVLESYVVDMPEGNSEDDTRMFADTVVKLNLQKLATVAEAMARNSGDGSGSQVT
Assay: In vitro inhibition of phosphatase ABI1 via co-regulator RCAR11/PYR1, MUP dephosphorylation, fluorescence
Assay type: biochemical
Details: at a concentration of 5 mM of the substance in a solution of DMSO and water; 35° C., 20 minutes
From the text: Effects of the phytohormone abscisic acid (ABA) on the behavior of plants under abiotic stress and the mechanism of action of ABA are described in the literature (cf. Abrams et al., WO97/23441, Cutler, Park et al. Science, 2009, 324, 1068; Grill et al. Science, 2009, 324, 1064; Tanokura et al. Biophysics, 2011, 7, 123; Schroeder et al. Plant J. 2010, 61, 290). Therefore, it is possible with the aid of a suitable in vitro test system to derive a correlation between the action of ABA and the stress response of a plant under abiotic stress. In the event of water deficiency (drought stress), plants form the phytohormone abscisic acid (ABA). This binds, along with a co-regulator (Regulatory Component of ABA-Receptor=RCAR according to Grill et al. Science, 2009, 324, 1064 or PYR/PYL according to Cutler et al. Science, 2009, 324, 1068), to a phosphatase (e.g. ABI1, a type 2C protein phosphatase, also abbreviated to PP2C) and inhibits its activity. […] For the determination of activity, the dephosphorylation of 4-methylumbelliferyl phosphate (MUP) was measured at 460 nm. […]
Enzyme buffer mix and substrate mix were made up 5 minutes prior to the addition and warmed to a temperature of 35° C. […] Finally, a relative fluorescence measurement was made at 35° C. with a BMG Labtech “POLARstar Optima” microplate reader using a 340/10 nm excitation filter and a 460 nm emission filter. […]

CC1=CC(=O)CC(C)(C)[C@@]1(O)/C=C/C(C)=C\C(=O)O [abscisic acid]
ABI1 inhibition: ++++ (≥90% inhibition)
